According to paper PMC4106271 (Journal of Medicinal Chemistry, 2014):

What was measured:
Format in all cases: cell-based
α1β2γ2S GABAA receptors = target: T1, α1β2γ2S GABAA receptors (Homo sapiens, UniProt P14867+P47870); experiment: Two-microelectrode voltage clamp, IGABA modulation, α1β2γ2S; conditions: for nH: Hill coefficient of concentration–response curve; for EC50: IGABA enhancement, GABA EC3–7, Xenopus oocytes
T1 construct: expressed in transfected cells; host or cells: Xenopus laevis oocytes injected with cRNA (pCMV cDNA templates)
Description: (§1) Preparation of stage V–VI oocytes from X. laevis and synthesis of capped runoff poly(A) cRNA transcripts from linearized cDNA templates (pCMV vector) was performed as previously described.[49] […] Follicle membranes from isolated oocytes were enzymatically digested with 2 mg/mL collagenase (type 1A, Sigma–Aldrich, Vienna, Austria).
(§2) Selected oocytes were injected with 10–50 nL of DEPC-treated water (diethyl pyrocarbonate, Sigma, Vienna, Austria) containing the different GABAA cRNAs at a concentration of approximately 300–3000 pg·nL^–1·subunit^–1.
(§3) To ensure expression of the γ2S subunit in the case of α1/2/3/5β2/3γ2S receptors, cRNAs were mixed in a ratio of 1:1:10. […] The amount of cRNAs was determined by means of a NanoDrop ND-1000 (Kisker-Biotech, Steinfurt, Germany).
(§4) Oocytes were stored at +18 °C in modified ND96 solution (90 mM NaCl, 1 mM CaCl2, 1 mM KCl, 1 mM MgCl2·6H2O, and 5 mM HEPES [4-(2-hydroxyethyl)-1-piperazineethanesulfonic acid], pH 7.4, all from Sigma–Aldrich, Vienna, Austria).
(§5) Chloride currents through GABAA receptors (IGABA) were measured at room temperature (+21 ± 1 °C) by means of a two-microelectrode voltage clamp technique making use of a Turbo TEC-05X amplifier (npi electronic, Tamm, Germany). IGABA were elicited at a holding potential of –70 mV. Data acquisition was carried out by means of an Axon Digidata 1322A interface using pCLAMP v.10 (Molecular Devices, Sunnyvale, CA). The modified ND96 solution was used as bath solution.
(§6) GABA and the studied derivatives were applied by means of the ScreeningTool (npi electronic, Tamm, Germany) fast perfusion system as described previously.[50] To elicit IGABA, the chamber was perfused with 120 μL of GABA- or compound-containing solution at a volume rate of 300 μL/s.[34] Care was taken to account for possible slow recovery from increasing levels of desensitization in the presence of high drug concentrations. The duration of washout periods was therefore extended from 1.5 min (<10 μM compounds) to 30 min (≥10 μM compounds). Oocytes with maximal current amplitudes >3 μA were discarded to exclude voltage clamp errors.
(§7) Stimulation of chloride currents by modulators of the GABAA receptor was measured at a GABA concentration eliciting between 3% and 7% of the maximal current amplitude (EC3–7). The GABA EC3–7 was determined for each oocyte individually. Enhancement of the chloride current was defined as (IGABA+compd/IGABA) – 1, where IGABA+compd is the current response in the presence of a given compound and IGABA is the control GABA current. IGABA-max reflects the maximal IGABA enhancement. Concentration–response curves were generated and the data were fitted by nonlinear regression analysis using Origin Software (OriginLab Corp.). Data were fitted to the equation 1/(1 + (EC50/[compound])^nH), where nH is the Hill coefficient. […] Statistical significance was calculated by paired Student t-test with a confidence interval of <0.05.

α1β1γ2S GABAA receptors = target: T2, α1β1γ2S GABAA receptors (Homo sapiens, UniProt P14867+P18505); experiment: Two-microelectrode voltage clamp, IGABA modulation, α1β1γ2S; conditions: for nH: Hill coefficient
T2 construct: expressed in transfected cells; host or cells: Xenopus laevis oocytes injected with cRNA (pCMV cDNA templates)
Description: as §1, §2, §3, §4, §5, §6
as §7, with “enhancement.” for “enhancement. Concentration–response curves were generated and the data were fitted by nonlinear regression analysis using Origin Software (OriginLab Corp.). Data were fitted to the equation 1/(1 + (EC50/[compound])^nH), where nH is the Hill coefficient.”

α1β3γ2S GABAA receptors = target: T3, α1β3γ2S GABAA receptors (Homo sapiens, UniProt P14867+P28472); experiment: Two-microelectrode voltage clamp, IGABA modulation, α1β3γ2S; conditions: for nH: Hill coefficient
T3 construct: expressed in transfected cells; host or cells: Xenopus laevis oocytes injected with cRNA (pCMV cDNA templates)
Description: Preparation of stage V–VI oocytes from X. laevis and synthesis of capped runoff poly(A) cRNA transcripts from linearized cDNA templates (pCMV vector) was performed as previously described.[49] Female X. laevis frogs (Nasco) were anesthetized by 15 min incubation in a 0.2% MS-222 (methanesulfonate salt of 3-aminobenzoic acid ethyl ester; Sigma–Aldrich, Vienna, Austria) solution before removal of parts of the ovaries. Follicle membranes from isolated oocytes were enzymatically digested with 2 mg/mL collagenase (type 1A, Sigma–Aldrich, Vienna, Austria).
as §2
To ensure expression of the γ2S subunit in the case of α1/2/3/5β2/3γ2S receptors, cRNAs were mixed in a ratio of 1:1:10. For expression of receptors composed of α4β2γ2S and α1β1γ2S, cRNAS were mixed in a ratio of 3:1:10. The amount of cRNAs was determined by means of a NanoDrop ND-1000 (Kisker-Biotech, Steinfurt, Germany).
as §4
as §5, with “solution. Microelectrodes were filled with 2 M KCl and had resistances between 1 and 3 MΩ.” for “solution.”
as §6, with “Oocytes with maximal current amplitudes >3 μA were discarded to exclude voltage clamp errors.” left out
Stimulation of chloride currents by modulators of the GABAA receptor was measured at a GABA concentration eliciting between 3% and 7% of the maximal current amplitude (EC3–7). The GABA EC3–7 was determined for each oocyte individually. […] Statistical significance was calculated by paired Student t-test with a confidence interval of <0.05.

α2β2γ2S GABAA receptors = target: T4, α2β2γ2S GABAA receptors (Homo sapiens, UniProt P47869+P47870); experiment: Two-microelectrode voltage clamp, IGABA modulation, α2β2γ2S; conditions: for nH: Hill coefficient
T4 construct: expressed in transfected cells; host or cells: Xenopus laevis oocytes injected with cRNA (pCMV cDNA templates)
Description: as §1, §2, §3, §4, §5, §6
as §7, with “enhancement.” for “enhancement. Concentration–response curves were generated and the data were fitted by nonlinear regression analysis using Origin Software (OriginLab Corp.). Data were fitted to the equation 1/(1 + (EC50/[compound])^nH), where nH is the Hill coefficient.”

α4β2γ2S GABAA receptors = target: T5, α4β2γ2S GABAA receptors (Homo sapiens, UniProt P47870+P48169); experiment: Two-microelectrode voltage clamp, IGABA modulation, α4β2γ2S; conditions: for nH: Hill coefficient
T5 construct: expressed in transfected cells; host or cells: Xenopus laevis oocytes injected with cRNA (pCMV cDNA templates)
Description: as §1, §2, §3, §4, §5, §6
as §7, with “enhancement.” for “enhancement. Concentration–response curves were generated and the data were fitted by nonlinear regression analysis using Origin Software (OriginLab Corp.). Data were fitted to the equation 1/(1 + (EC50/[compound])^nH), where nH is the Hill coefficient.”

TRPV1 = target: T6, TRPV1 (Homo sapiens, UniProt Q8NER1); experiment: TRPV1 activation in Xenopus oocytes; conditions: 100 μM, data not shown
T6 construct: expressed in transfected cells; host or cells: Xenopus laevis oocytes
Source text: (for review see ref ([47])). In order to rule out potential activation of TRPV1, selected compounds were studied in X. laevis oocytes for interaction with TRPV1 prior to in vivo characterization. […] Both compounds were further characterized concerning their anxiolytic activity (see also ref ([34])).

T3 sequence (P14867 28-456): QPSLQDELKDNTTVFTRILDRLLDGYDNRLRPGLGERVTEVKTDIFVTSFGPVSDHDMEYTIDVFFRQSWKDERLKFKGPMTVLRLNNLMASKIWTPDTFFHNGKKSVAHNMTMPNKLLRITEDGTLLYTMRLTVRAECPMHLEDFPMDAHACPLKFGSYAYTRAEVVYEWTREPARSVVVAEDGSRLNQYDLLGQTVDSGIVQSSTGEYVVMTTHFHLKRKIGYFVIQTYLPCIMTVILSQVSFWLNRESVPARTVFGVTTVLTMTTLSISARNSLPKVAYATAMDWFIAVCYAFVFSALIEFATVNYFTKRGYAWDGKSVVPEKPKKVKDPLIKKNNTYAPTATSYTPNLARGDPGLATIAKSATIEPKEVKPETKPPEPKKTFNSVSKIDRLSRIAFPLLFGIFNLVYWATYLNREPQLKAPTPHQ
T3 sequence (P28472 26-473): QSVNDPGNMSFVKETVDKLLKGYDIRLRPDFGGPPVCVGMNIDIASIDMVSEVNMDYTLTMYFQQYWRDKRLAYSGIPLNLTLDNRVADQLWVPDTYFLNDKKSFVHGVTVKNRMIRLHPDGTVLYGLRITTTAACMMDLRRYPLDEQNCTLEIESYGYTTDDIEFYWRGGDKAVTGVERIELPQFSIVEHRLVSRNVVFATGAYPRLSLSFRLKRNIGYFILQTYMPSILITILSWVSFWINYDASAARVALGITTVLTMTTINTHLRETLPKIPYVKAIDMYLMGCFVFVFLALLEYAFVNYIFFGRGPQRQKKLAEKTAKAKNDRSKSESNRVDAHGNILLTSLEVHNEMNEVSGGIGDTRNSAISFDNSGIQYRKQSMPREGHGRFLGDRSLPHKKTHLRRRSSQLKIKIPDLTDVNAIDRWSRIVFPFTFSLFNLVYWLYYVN
T3 sequence (P18507 40-467 isoform P18507-1 partner limits assumed): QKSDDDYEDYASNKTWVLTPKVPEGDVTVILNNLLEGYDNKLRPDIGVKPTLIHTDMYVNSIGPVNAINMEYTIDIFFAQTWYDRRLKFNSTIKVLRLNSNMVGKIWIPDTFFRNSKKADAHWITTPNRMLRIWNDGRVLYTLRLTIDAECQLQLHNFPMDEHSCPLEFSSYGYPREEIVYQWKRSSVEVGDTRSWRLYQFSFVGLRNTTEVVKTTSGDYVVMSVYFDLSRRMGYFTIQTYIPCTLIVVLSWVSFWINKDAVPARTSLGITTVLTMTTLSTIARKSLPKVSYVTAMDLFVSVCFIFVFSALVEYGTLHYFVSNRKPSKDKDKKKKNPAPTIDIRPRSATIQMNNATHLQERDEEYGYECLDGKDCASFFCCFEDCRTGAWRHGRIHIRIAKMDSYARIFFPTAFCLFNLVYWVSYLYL
T1 sequence (P14867 28-456): as the sequence (P14867 28-456) above
T1 sequence (P47870 26-512): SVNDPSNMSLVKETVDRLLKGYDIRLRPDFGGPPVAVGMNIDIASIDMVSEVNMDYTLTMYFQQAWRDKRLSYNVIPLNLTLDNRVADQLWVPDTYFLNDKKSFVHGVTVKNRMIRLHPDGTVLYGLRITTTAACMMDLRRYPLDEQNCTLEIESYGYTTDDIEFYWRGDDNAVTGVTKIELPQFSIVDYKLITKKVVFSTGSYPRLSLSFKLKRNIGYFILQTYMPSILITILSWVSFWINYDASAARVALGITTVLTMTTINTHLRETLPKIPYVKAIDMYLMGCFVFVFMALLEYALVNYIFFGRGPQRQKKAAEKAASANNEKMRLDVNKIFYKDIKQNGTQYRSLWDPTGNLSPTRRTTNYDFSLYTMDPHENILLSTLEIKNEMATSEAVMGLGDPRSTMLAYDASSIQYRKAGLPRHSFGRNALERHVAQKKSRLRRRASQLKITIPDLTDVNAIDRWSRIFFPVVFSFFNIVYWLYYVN
T1 sequence (P18507 40-467 isoform P18507-1 partner limits assumed): as the sequence (P18507 40-467 isoform P18507-1 partner limits assumed) above
T2 sequence (P14867 28-456): as the sequence (P14867 28-456) above
T2 sequence (P18505 26-474): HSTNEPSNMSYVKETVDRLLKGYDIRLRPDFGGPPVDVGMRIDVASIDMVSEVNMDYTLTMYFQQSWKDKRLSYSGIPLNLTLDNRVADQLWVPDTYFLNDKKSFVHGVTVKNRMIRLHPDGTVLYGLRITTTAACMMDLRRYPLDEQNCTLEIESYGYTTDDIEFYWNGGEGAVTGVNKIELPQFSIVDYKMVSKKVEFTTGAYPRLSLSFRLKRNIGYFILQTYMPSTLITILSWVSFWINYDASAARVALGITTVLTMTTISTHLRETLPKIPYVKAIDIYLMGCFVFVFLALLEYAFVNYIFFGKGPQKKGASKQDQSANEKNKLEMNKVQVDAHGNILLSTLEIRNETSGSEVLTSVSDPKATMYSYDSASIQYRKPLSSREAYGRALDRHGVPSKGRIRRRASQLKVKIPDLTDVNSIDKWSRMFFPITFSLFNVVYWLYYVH
T2 sequence (P18507 40-467 isoform P18507-1 partner limits assumed): as the sequence (P18507 40-467 isoform P18507-1 partner limits assumed) above
T5 sequence (P48169 36-554): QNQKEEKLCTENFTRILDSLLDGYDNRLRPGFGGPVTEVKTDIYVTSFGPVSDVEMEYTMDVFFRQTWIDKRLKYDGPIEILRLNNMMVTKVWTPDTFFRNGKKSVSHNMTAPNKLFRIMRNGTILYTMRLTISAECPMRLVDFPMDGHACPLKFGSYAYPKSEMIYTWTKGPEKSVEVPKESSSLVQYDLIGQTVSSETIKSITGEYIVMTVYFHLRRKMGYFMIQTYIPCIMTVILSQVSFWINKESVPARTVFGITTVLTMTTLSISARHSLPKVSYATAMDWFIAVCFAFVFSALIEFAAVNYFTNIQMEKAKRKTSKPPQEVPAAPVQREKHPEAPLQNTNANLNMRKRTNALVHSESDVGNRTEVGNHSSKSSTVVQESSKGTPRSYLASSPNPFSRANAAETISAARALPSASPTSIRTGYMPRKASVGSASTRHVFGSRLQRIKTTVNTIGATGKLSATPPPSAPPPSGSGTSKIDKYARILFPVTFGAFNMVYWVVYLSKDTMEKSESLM
T5 sequence (P47870 26-512): as the sequence (P47870 26-512) above
T5 sequence (P18507 40-467 isoform P18507-1 partner limits assumed): as the sequence (P18507 40-467 isoform P18507-1 partner limits assumed) above
T4 sequence (P47869 29-451): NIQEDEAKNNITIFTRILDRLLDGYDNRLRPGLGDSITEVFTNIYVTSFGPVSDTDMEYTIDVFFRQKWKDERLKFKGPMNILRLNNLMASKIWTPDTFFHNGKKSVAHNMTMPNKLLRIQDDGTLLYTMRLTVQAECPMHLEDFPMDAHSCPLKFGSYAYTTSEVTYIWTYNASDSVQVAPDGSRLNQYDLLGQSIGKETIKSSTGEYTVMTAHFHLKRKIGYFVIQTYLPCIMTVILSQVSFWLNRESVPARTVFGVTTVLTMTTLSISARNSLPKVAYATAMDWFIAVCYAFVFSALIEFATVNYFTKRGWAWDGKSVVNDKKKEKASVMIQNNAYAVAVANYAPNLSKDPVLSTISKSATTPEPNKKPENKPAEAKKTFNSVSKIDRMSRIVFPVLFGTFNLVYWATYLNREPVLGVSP
T4 sequence (P47870 26-512): as the sequence (P47870 26-512) above
T4 sequence (P18507 40-467 isoform P18507-1 partner limits assumed): as the sequence (P18507 40-467 isoform P18507-1 partner limits assumed) above
T6 sequence (Q8NER1 whole entry, species assumed): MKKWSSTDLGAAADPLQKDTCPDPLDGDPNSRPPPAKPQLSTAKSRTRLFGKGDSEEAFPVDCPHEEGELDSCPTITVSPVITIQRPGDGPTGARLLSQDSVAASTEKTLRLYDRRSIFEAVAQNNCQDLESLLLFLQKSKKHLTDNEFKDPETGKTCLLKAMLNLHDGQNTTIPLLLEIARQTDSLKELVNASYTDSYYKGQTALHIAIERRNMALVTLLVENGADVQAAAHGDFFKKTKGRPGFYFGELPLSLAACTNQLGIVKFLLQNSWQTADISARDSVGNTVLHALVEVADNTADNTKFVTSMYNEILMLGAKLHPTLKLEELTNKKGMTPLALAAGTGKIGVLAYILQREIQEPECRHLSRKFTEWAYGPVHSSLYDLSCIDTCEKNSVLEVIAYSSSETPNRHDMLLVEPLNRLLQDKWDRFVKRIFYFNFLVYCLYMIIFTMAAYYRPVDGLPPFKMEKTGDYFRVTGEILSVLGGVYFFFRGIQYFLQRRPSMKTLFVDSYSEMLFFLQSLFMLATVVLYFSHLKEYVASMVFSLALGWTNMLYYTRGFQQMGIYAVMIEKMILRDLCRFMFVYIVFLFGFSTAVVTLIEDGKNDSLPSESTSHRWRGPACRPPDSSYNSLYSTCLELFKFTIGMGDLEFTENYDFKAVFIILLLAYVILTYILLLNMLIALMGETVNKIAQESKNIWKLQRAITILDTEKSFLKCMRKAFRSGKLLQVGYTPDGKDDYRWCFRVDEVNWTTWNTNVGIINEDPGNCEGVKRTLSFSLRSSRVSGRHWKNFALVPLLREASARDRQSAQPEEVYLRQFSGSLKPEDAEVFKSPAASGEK

Row | SMILES | nH (α1β2γ2S GABAA receptors) | EC50 (α1β2γ2S GABAA receptors) [µM] | EC50 (α1β1γ2S GABAA receptors) [µM] | nH (α1β1γ2S GABAA receptors) | EC50 (α1β3γ2S GABAA receptors) [µM] | nH (α1β3γ2S GABAA receptors) | EC50 (α2β2γ2S GABAA receptors) [µM] | nH (α2β2γ2S GABAA receptors) | EC50 (α4β2γ2S GABAA receptors) [µM] | nH (α4β2γ2S GABAA receptors) | activation of TRPV1 (TRPV1)
1 | CCCN(CCC)C(=O)/C=C/C=C/c1ccc2c(c1)OCO2 [Compound 23, (2E,4E)-5-(1,3-benzodioxol-5-yl)-N,N-dipropyl-2,4-pentadienamide] | 3.1 ± 0.8 | 51.7 ± 9.5 | 57.5 ± 7.3 | 1.8 ± 0.1 | 34.7 ± 5.7 | 1.9 ± 0.2 | 26.4 ± 6.6 | 1.9 ± 0.4 | 34.7 ± 3.8 | 1.7 ± 0.1 | did not activate TRPV1
2 | CCCCN(CCCC)C(=O)/C=C/C=C/c1ccc2c(c1)OCO2 [Compound 25, (2E,4E)-5-(1,3-Benzodioxol-5-yl)-N,N-dibutyl-2,4-pentadienamide] | 1.8 ± 0.1 | 13.8 ± 1.8 | 15.9 ± 4.9 | 1.3 ± 0.6 | 29.5 ± 2.9 | 1.5 ± 0.1 | 14.8 ± 1.9 | 2.2 ± 0.3 | 56.7 ± 21 | 1.3 ± 0.3 | did not activate TRPV1
